Laboratory results: patent US6329339A, “Pharmaceutical antiviral composition comprising glycyrrhizic acid and at least one protein endowed with antiviral activity” (priority 1997, dated 2001)

How the values were obtained:
HSV1 [1] = assay: Inhibition of HSV1 viral plaques on VERO cells; assay type: cell-based, Herpes Simplex Virus type 1; details: for Inhibition (%) of viral plaques with various lysozymes: percentage of the control ± standard deviation
[2] = tested on: virus (viral replication); details: cited from earlier work
[3] = tested on: infected cells, synthesis of glyco-proteins; details: cited from earlier work
[4] = tested on: normal cells, synthesis of glyco-proteins; details: cited from earlier work
[5] = tested on: normal cells, synthesis of proteins; details: even at doses of 4 mM; cited from earlier work
[6] = tested on: infected cells, synthesis of proteins; details: even at doses of 4 mM; cited from earlier work
HSV1 [7] = details: 8 mM, cited from earlier work
HSV1 [8] = details: Arch. Virol. 1995; cited from earlier work
[9] = tested on: human immunodeficiency virus; details: in vitro; cited from earlier work
human cytomegalovirus = details: in vitro; cited from earlier work
[10] = tested on: Herpes Simplex Virus type 1; details: cited from earlier work
[11] = in vivo, cited from earlier work
[12] = Human alphaherpesvirus 1, Vero, read-out: Glycyrrhizic acid - Inhibition (%) of viral plaques

Molecule: CC1(C)[C@@H](O[C@H]2O[C@H](C(=O)O)[C@@H](O)[C@H](O)[C@H]2O[C@@H]2O[C@H](C(=O)O)[C@@H](O)[C@H](O)[C@H]2O)CC[C@]2(C)[C@H]3C(=O)C=C4[C@@H]5C[C@@](C)(C(=O)O)CC[C@]5(C)CC[C@@]4(C)[C@]3(C)CC[C@@H]12 [glycyrrhizic acid]
- inhibition at 200 µg/mL (HSV1 [1]; [12]): 0%
- inhibition at 400 µg/mL (HSV1 [1]; [12]): 10 ± 4%
- inhibition at 600 µg/mL (HSV1 [1]; [12]): 27 ± 7%
- inhibition at 800 µg/mL (HSV1 [1]; [12]): 50 ± 8%
- inhibition at 1000 µg/mL (HSV1 [1]; [12]): 75 ± 12%
- inhibition of viral replication ([2]; 0.5 mM): 50%
- reduction of the virus ([2]; 1 mM): 80%
- inhibition of production of the virus ([2]; 4 mM): 99%
- antiviral activity [2]: a certain antiviral activity
- reduction in the incorporation of glucosamine-H^3, infected cells ([3]; 0.5 mM, infected cells): more than 10%
- reduction in the synthesis of glyco-protein in infected cells ([3]; 1 mM, infected cells): 20%
- synthesis of viral glycoproteins ([3]; at antiviral doses): largely inhibits
- inhibition of incorporation of glucosamine-H^3, normal cells ([4]; 0.5 mM, normal cells): no inhibition
- inhibition of the synthesis of glyco-proteins in the control ([4]; 1 mM, control (normal) cells): no inhibition
- synthesis of glyco-proteins in the normal cells ([4]; 4 mM, normal cells): slightly altered
- cell glycoproteins synthesis ([4]; only at very high doses): only at very high doses does it also inhibit
- action on the synthesis of proteins, normal cells [5]: practically irrelevant
- action on the synthesis of proteins, infected cells [6]: practically irrelevant
- Viral production after 12 hours (HSV1 [7]; contact 2 hours at 37° C., 12 hours (control 3 × 10^6)): 4.2 × 10^4 PFU/ml
- Viral production after 17 hours (HSV1 [7]; contact 2 hours at 37° C., 17 hours (control 5.4 × 10^6)): 1.2 × 10^4 PFU/ml
- inhibition at 12 hours from the infection (HSV1 [7]; 12 hours): about 2 logarithms
- inhibition at 22 hours from infection (HSV1 [7]; 22 hours): ~3 logarithms
- inhibition at 22 hours from infection (%) (HSV1 [7]; 22 hours): 99.9%
- decrease in infection (HSV1 [7]; at 12, 17 and 22 hours): strong decrease in infection

Molecule: lactoferrin
- antiviral / antiherpetic (HSV1) activity of lactoferrin (HSV1 [8]): antiherpetic (HSV1) activity
- activity against human immunodeficiency virus replication [9]: potent activity
- activity against human cytomegalovirus replication (human cytomegalovirus): potent activity

Molecule: chicken lysozyme: chicken lysozyme supplied by SIGMA
- Inhibition (%) of viral plaques with various lysozymes (HSV1 [1]; 0.5 mg/ml): 20 ± 4%
- Inhibition (%) of viral plaques with various lysozymes (HSV1 [1]; 1 mg/ml): 49 ± 5%
- Inhibition (%) of viral plaques with various lysozymes (HSV1 [1]; 2 mg/ml): 60 ± 6%
- Inhibition (%) of viral plaques with various lysozymes (HSV1 [1]; 4 mg/ml): 71 ± 6%
- Inhibition (%) of viral plaques with various lysozymes (HSV1 [1]; 6 mg/ml): 82 ± 4%
- dose dependence of the action (HSV1 [1]; in words): dose-dependent
- formation of herpetic virus plaques on VERO cells (HSV1 [1]; in words): significantly inhibits

Molecule: Nc1nc2c(ncn2COCCO)c(=O)[nH]1 [aciclovir]
- efficacy during the first infection ([10]; administered during the first infection): fairly efficient
- prevention of re-infection ([10]; re-infection by Herpes Simplex Virus type 1): not preventing re-infection
- efficacy in recurring infections ([10]; recurring infections): not very effective
- side effects of oral treatment ([11]; po): nausea, diarrhoea, itching, headaches, renal inadequacies and nephrotoxicity
- side effects of topical use [11]: often causes burning and irritation of mucous membranes
